From patent EP3414229B1, “QUINOLINONE LYSYL OXIDASE-LIKE 2 INHIBITORS AND USES THEREOF” (Pharmakea, Inc., priority 2016, dated 2017)

Assays:
[1] = target: T1, human LOXL2 (Homo sapiens, UniProt Q9Y4K0); assay: Human LOXL2 Amine Oxidase Activity Assay (Amplex Red fluorescence); type: biochemical; details: concentrated conditioned media from CHO cells stably expressing human LOXL2; 2h at 37 °C with test compound; DAP substrate
T1 construct: expressed in transfected cells; 10-20X concentrated conditioned media used as the enzyme source
T1 sequence (Q9Y4K0 26-774): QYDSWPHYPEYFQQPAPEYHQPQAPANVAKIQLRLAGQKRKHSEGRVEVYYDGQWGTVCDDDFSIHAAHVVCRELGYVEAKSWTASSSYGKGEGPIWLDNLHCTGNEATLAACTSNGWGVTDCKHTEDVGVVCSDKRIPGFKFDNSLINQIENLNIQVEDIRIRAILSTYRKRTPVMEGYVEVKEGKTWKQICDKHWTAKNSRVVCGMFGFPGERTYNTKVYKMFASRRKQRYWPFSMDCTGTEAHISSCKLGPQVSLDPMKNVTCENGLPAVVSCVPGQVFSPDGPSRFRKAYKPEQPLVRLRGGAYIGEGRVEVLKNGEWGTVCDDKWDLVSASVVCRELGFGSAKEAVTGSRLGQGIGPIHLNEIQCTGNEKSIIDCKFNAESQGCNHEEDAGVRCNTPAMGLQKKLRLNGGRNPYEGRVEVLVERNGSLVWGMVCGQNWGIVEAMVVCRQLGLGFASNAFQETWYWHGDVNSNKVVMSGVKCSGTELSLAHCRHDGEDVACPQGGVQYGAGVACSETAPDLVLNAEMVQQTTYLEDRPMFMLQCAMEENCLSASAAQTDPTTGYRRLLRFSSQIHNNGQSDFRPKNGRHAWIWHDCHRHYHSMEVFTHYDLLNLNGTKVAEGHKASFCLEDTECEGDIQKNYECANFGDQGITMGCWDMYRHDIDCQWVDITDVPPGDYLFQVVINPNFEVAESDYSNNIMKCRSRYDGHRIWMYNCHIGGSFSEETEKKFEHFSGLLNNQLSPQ
Description: Example B-1: Human LOXL2 Amine Oxidase Activity Assay
LOXL2 amine oxidase activity is evaluated by measuring Amplex Red fluorescence using 10-20X concentrated conditioned media from CHO cells stably expressing human LOXL2. To assay for amine oxidase activity, 10 µL of the concentrated conditioned media is incubated with 2 µL of test compound in DMSO and 73 µL Assay Buffer (50 mM Borate Buffer, pH8) for 2h at 37 °C. After the 2h incubation, 5 ul of 10 mM 1,5-Diaminopentane (DAP) diluted in Assay Buffer and 10 µl of Amplex Red Mix (8.5 µl Assay Buffer + 0.5 µl of 10 mM Amplex Red + 1 µl of 500 U/ml Horseradish Peroxidase) are added and the plate mixed and immediately placed on the FlexStaion for fluorescence measurements. Fluorescence is read in kinetic mode every 2 min for 1 hour at excitation = 544 and emission = 590. The amine oxidase activity is calculated from the slope of the linear portion of the curve.

[2] = tested on: C57B1/6 male mice; assay: Mouse Oropharyngeal Bleomycin Model of Lung Fibrosis; type: in vivo; details: dosed prophylactically at 60 mg/kg p.o.
Description: Example B-3: Mouse Oropharyngeal Bleomycin Model of Lung Fibrosis
Lung fibrosis is induced in C57B1/6 male mice by administering bleomycin (0.1-4 U/kg) via oropharyngeal instillation. Mice are either pretreated with vehicle or test compound (1 day to 1 hour) orally, intraperitoneally, intravenously or subcutaneously before bleomycin installation (prophylactic dosing) or 7-14 days post bleomycin instillation (therapeutic dosing). The route and frequency of dosing are based on previously determined pharmacokinetic properties for the LOXL2 inhibitor in mouse. After bleomycin instillation animals are monitored daily for weight loss and clinical signs for 14-28 days prior to sacrifice. […] For histological examination, lung slices are stained with Masson's trichrome or Picro-Sirius red to measure cross-linked collagen as an indicator of fibrosis and an Ashcroft score of lung fibrotic and inflammatory damage determined. In addition, immunohistochemistry of fibrotic proteins such as a-smooth muscle actin can be recorded. […] After the acid hydrolysis, 25-100 µl of the supernatant is dried down, resuspended in 25 µl water and the hydroxyproline content determined by the addition of 0.5 ml Chloramine T solution (140 mg Chloramine T in 6.5 ml ddH20 + 1 ml n-propanol + 2.5 ml 1M sodium acetate) and incubation at room temperature for 20 min. […]

| SMILES | IC50 [1] [nM] | efficacy in bleomycin model of lung fibrosis [2] |
| --- | --- | --- |
| Cn1c(CN)cc(=O)c2ccccc21 [Compound 1-2, 2-(Aminomethyl)-1-methylquinolin-4(1H)-one] | > 1000 |  |
| NCc1cc(=O)c2cc(Oc3ccccc3)ccc2[nH]1 [Compound 1-21, 2-(Aminomethyl)-6-phenoxyquinolin-4(1H)-one] | < 300 |  |
| NCc1cc(=O)c2cc(-c3ccc(F)cc3)ccc2[nH]1 [Compound 1-11, 2-(Aminomethyl)-6-(4-fluorophenyl)quinolin-4(1H)-one] | < 300 |  |
| NCc1cc(=O)c2cc(-c3cn(-c4ccccc4)nn3)ccc2[nH]1 [Compound 1-6, 2-(Aminomethyl)-6-(1-phenyl-1H-1,2,3-triazol-4-yl)quinolin-4(1H)-one] | < 300 |  |
| NCc1cc(=O)c2cc(-c3ccc(C(F)(F)F)nc3)ccc2[nH]1 [Compound 1-74, 2-(Aminomethyl)-6-(6-(trifluoromethyl)pyridin-3-yl)quinolin-4(1H)-one] | < 300 |  |
| NCc1cc(=O)c2cc(C#Cc3ccccc3)ccc2[nH]1 [Compound 1-7, 2-(Aminomethyl)-6-(phenylethynyl)quinolin-4(1H)-one] | < 300 |  |
| Cn1cc(-c2ccc3[nH]c(CN)cc(=O)c3c2)cn1 [Compound 1-47, 2-(Aminomethyl)-6-(1-methyl-1H-pyrazol-4-yl)quinolin-4(1H)-one] | < 300 |  |
| C#Cc1ccc2[nH]c(CN)cc(=O)c2c1 [Compound 1-4, 2-(Aminomethyl)-6-ethynylquinolin-4(1H)-one] | < 300 |  |
| NCc1cc(=O)c2cc(-c3cccc4cccnc34)ccc2[nH]1 [Compound 1-65, 2-(Aminomethyl)-[6,8'-biquinolin]-4(1H)-one] | < 300 |  |
| NCc1cc(=O)c2cc(-c3ccc(F)cc3Cl)ccc2[nH]1 [Compound 1-70, 2-(Aminomethyl)-6-(2-chloro-4-fluorophenyl)quinolin-4(1H)-one] | < 300 |  |
| NCc1cc(=O)c2cc(-c3ccccc3)ccc2[nH]1 [Compound 1-5, 2-(Aminomethyl)-6-phenylquinolin-4(1H)-one] | < 300 |  |
| NCc1cc(=O)c2cc(-c3cnc(C(F)(F)F)nc3)ccc2[nH]1 [Compound 1-77, 2-(Aminomethyl)-6-(2-(trifluoromethyl)pyrimidin-5-yl)quinolin-4(1H)-one] | < 300 |  |
| NCc1cc(=O)c2cc(-c3cncc(OCc4ccccc4)c3)ccc2[nH]1 [Compound 1-66, 2-(Aminomethyl)-6-(5-(benzyloxy)pyridin-3-yl)quinolin-4(1H)-one] | < 300 |  |
| NCc1cc(=O)c2cc(-c3cncnc3)ccc2[nH]1 [Compound 1-40, 2-(Aminomethyl)-6-(pyrimidin-5-yl)quinolin-4(1H)-one] | < 300 |  |

The next lines start with results.

| IC50 [1] [nM] | SMILES | efficacy in bleomycin model of lung fibrosis [2] |
| --- | --- | --- |
| < 300 | NCc1cc(=O)c2cc(Br)ccc2[nH]1 [Compound 1-3, 2-(Aminomethyl)-6-bromoquinolin-4(1H)-one] | efficacious |
| < 300 | COc1ccc(-c2ccc3[nH]c(CN)cc(=O)c3c2)cc1F [Compound 1-72, 2-(Aminomethyl)-6-(3-fluoro-4-methoxyphenyl)quinolin-4(1H)-one] |  |
| < 300 | NCc1cc(=O)c2cc(-n3cccn3)ccc2[nH]1 [Compound 1-8, 2-(Aminomethyl)-6-(1H-pyrazol-1-yl)quinolin-4(1H)-one] |  |
| < 300 | Cc1ccc(=O)n(-c2ccc3[nH]c(CN)cc(=O)c3c2)c1 [Compound 1-46, 2-(Aminomethyl)-6-(5-methyl-2-oxopyridin-1(2H)-yl)quinolin-4(1H)-one] |  |
| < 300 | COCCOc1ccc2[nH]c(CN)cc(=O)c2c1 [Compound 1-78, 2-(Aminomethyl)-6-(2-methoxyethoxy)quinolin-4(1H)-one] |  |
| < 300 | COc1ccc2[nH]c(CN)cc(=O)c2c1 [Compound 1-9, 2-(Aminomethyl)-6-methoxyquinolin-4(1H)-one] |  |
| < 300 | NCc1cc(=O)c2ccccc2[nH]1 [Compound 1-1, 2-(Aminomethyl)quinolin-4(1H)-one] |  |
